Measured values from patent US12077501B2, “Compounds and compositions for intracellular delivery of agents” (ModernaTX, Inc., priority 2017, dated 2024).

Key:
[1] = pKa of nanoparticle compositions; assay type: physicochemical; conditions: Table 1c
hEPO expression = hEPO expression in CD-1 mice compared with MC3; assay type: in vivo; conditions: intravenous, 0.5 mpk, Table 7e
Excerpt: (§1) In contrast, hEPO expression in rats induced by administration of a nanoparticle composition including a compound according to one of formulae (I), (Ia1)-(Ia6), (Ib), (II), (IIa), (III), and (IIIa) was substantially […] than that measured for MC3. […] Tables 7c and 7d show additional protein expressions and clearance data from compositions with various compounds disclosed herein as compared to with MC3. Tables 7e, 7f and 7g show hEPO expression data in CD-1 mice at a dose of 0.5 mpk.

[2] = Encapsulation efficiency of RNA (QUANT-IT RIBOGREEN RNA assay); assay type: physicochemical; conditions: Table 1c; nanoparticle compositions
How it was run: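 Samples diluted to about 5 μg/mL RNA in TE buffer pH 7.5, treated with buffer or 2% Triton X-100 for 15 min at 37° C, then stained with RiboGreen (1:100). Fluorescence at about 480/520 nm, blank-subtracted; free RNA fraction is intact over Triton-disrupted signal.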

[3] = Particle size and polydispersity index of nanoparticle compositions (Zetasizer Nano ZS); assay type: physicochemical; conditions: Table 1c; nanoparticle compositions
Protocol: A Zetasizer Nano ZS (Malvem Instruments Ltd, Malvem, Worcestershire, UK) can be used to determine the particle size, the polydispersity index (PDI) and the zeta potential of the nanoparticle compositions in 1×PBS in determining particle size and 15 mM PBS in determining zeta potential.

[4] = Lipid clearance: % dose remaining in liver of CD-1 mice; assay type: in vivo; conditions: intravenous, 0.5 mg/kg, CD-1 mouse, Table 8a
Excerpt: as §1

[5] = Lipid purity change after storage in EtOH for 96 h at 25 or 37 °C; assay type: physicochemical
Protocol: Nanoparticle compositions including a therapeutic and/or prophylactic agent can be optimized according to the selection of a compound according to one of formulae (I), (Ia1)-(Ia10), (Ib), (Ic), (Id), (Id1)-(Id10), (Ie), (Ie1)-(Ie6), (II), (IIa), (III), and (IIIa), the selection of additional lipids, the amount of each lipid in the lipid component, and the wt:wt ratio of the lipid component to the therapeutic and/or prophylactic agent, as described herein. Initial studies were performed to compare the delivery efficiency of nanoparticle compositions including various compounds according to one of formulae (I), (Ia1)-(Ia10), (Ib), (Ic), (Id), (Id1)-(Id10), (Ie), (Ie1)-(Ie6), (II), (IIa), (III), and (IIIa). The cationic lipid MC3 is a current standard in the art. Also determined was the stability of nanoparticles of the disclosure, i.e., the purity after storage in EtOH for 96h at 25° C. or 37° C. (Table Id).

Compound: CCCCCCCCCCCCCCN(CCCOC(=O)CCCCCCCCC)CC(=O)N1CCN(C(=O)CN(CCCCCCCCC)CCN(CCCCCCCCC)CCCCCCCCC)CC1 [Compound 89, 3-((2-(4-(N-(2-(Dinonylamino)ethyl)-N-nonylglycyl)piperazin-1-yl)-2-oxoethyl)(tetradecyl)amino)propyl decanoate]
- pKa [1]: 6.94
- AUC (p/s*h) CD-1 mice 0.5 mpk (hEPO expression): 1.36E+08 p/s*h
- EE (%) [2]: 97.6%
- PDI [3]: 0.20
- Size (nm) [3]: 80.1 nm
- % Dose Remaining 24 hr [4]: 0.05%
- Lipid % change purity in EtOH, 25° C., 96 h [5]: 2.3%
- Lipid % change purity in EtOH, 37° C., 96 h [5]: 3.9%

Compound: CCCCCCCCCCCCCCN(CCCCCCCC(=O)OCCCCC)CC(=O)N1CCN(C(=O)CN(CCCCCCCCC)CCN(CCCCCCCCC)CCCCCCCCC)CC1 [Compound 90, Pentyl 8-((2-(4-(N-(2-(dinonylamino)ethyl)-N-nonylglycyl)piperazin-1-yl)-2-oxoethyl)(tetradecyl)amino)octanoate]
- pKa [1]: 6.83
- AUC (p/s*h) CD-1 mice 0.5 mpk (hEPO expression): 2.08E+07 p/s*h
- EE (%) [2]: 98.4%
- PDI [3]: 0.19
- Size (nm) [3]: 81.5 nm
- % Dose Remaining 24 hr [4]: 3.93%
- Lipid % change purity in EtOH, 25° C., 96 h [5]: 0.1%
- Lipid % change purity in EtOH, 37° C., 96 h [5]: 9.6%

Compound: CCCCCCCCCN(CCCCCCCCC)CCN(CCCCCCCCC)CC(=O)N1CCC(COC(=O)CN(CCCCCCCCC)CCCCCCCCC)C1 (centres unmarked) [Compound 102, (1-(N-(2-(Dinonylamino)ethyl)-N-nonylglycyl)pyrrolidin-3-yl)methyl dinonylglycinate]
- pKa [1]: 5.85
- AUC (p/s*h) CD-1 mice 0.5 mpk (hEPO expression): 6.34E+06 p/s*h
- EE (%) [2]: 97.6%
- PDI [3]: 0.23
- Size (nm) [3]: 71.5 nm
- Lipid % change purity in EtOH, 25° C., 96 h [5]: 14.8%
- Lipid % change purity in EtOH, 37° C., 96 h [5]: 31.5%

Compound: CCCCCCCCCN(CCCCCCCCC)CC(=O)N1CCN(C(=O)CN(CCCCCCCCC)CCCCCCCCC)CC1 [Compound 112, 1,1′-(piperazine-1,4-diyl)bis(2-(dinonylamino)ethan-1-one)]
- pKa [1]: 6.14
- AUC (p/s*h) CD-1 mice 0.5 mpk (hEPO expression): 1.78E+04 p/s*h
- EE (%) [2]: 97.1%
- PDI [3]: 0.22
- Size (nm) [3]: 73.5 nm
- % Dose Remaining 24 hr [4]: 46.37%

Compound: CCCCCC/C=C\COC(=O)CCCN(CCCCCCCCCCCCCC)CC(=O)N1CCN(C(=O)CN(CCCCCCCCC)CCN(CCCCCCCCC)CCCCCCCCC)CC1 [Compound 118, (Z)-Non-2-en-1-yl 4-((2-(4-(N-(2-(dinonylamino)ethyl)-N-nonylglycyl)piperazin-1-yl)-2-oxoethyl)(tetradecyl)amino)butanoate]
- pKa [1]: 6.7
- AUC (p/s*h) CD-1 mice 0.5 mpk (hEPO expression): 1.64E+08 p/s*h
- EE (%) [2]: 97.8%
- PDI [3]: 0.20
- Size (nm) [3]: 82.3 nm
- % Dose Remaining 24 hr [4]: 55.92%

Compound: CCCCCCCCCCCCCCN(CCCCCCCCCCCC(=O)OC)CCC1CCCN(C(=O)CN(CCCCCCCCC)CCN(CCCCCCCCC)CCCCCCCCC)C1 (centres unmarked) [Compound 123, Methyl 12-((2-(1-(N-(2-(dinonylamino)ethyl)-N-nonylglycyl)piperidin-3-yl)ethyl)(tetradecyl)amino)dodecanoate]
- pKa [1]: 6.51
- AUC (p/s*h) CD-1 mice 0.5 mpk (hEPO expression): 5.84E+07 p/s*h
- % Dose Remaining 24 hr [4]: 3.75%

Compound: CCCCCCCCCCCCCCN(CCCCCC(=O)OCCCCCCC)CCC1CCN(C(=O)CN(CCCCCCCCC)CCN(CCCCCCCCC)CCCCCCCCC)C1 (centres unmarked) [Compound 125, Heptyl 6-((2-(1-(N-(2-(dinonylamino)ethyl)-N-nonylglycyl)pyrrolidin-3-yl)ethyl)(tetradecyl)amino)hexanoate]
- pKa [1]: 6.89
- AUC (p/s*h) CD-1 mice 0.5 mpk (hEPO expression): 7.89E+06 p/s*h
- % Dose Remaining 24 hr [4]: 2.74%

Compound: CCCCCCCCCN(CCCCCCCCC)CCN(CCCCCCCCC)CC(=O)OCCOC(=O)CN(CCCCCCCCC)CCCCCCCCC [Compound 150, 2-((N-(2-(Dinonylamino)ethyl)-N-nonylglycyl)oxy)ethyl dinonylglycinate]
- pKa [1]: 5.10
- AUC (p/s*h) CD-1 mice 0.5 mpk (hEPO expression): 2.29E+05 p/s*h
- % Dose Remaining 24 hr [4]: 57.89%
